Laboratory results from US6814952B2, “Diagnostic imaging agent useful for selecting a therapy for cancerous bone metastasis” (Nihon Medi-Physics Co., Ltd., priority 2001, dated 2004).

Legend:
osteoclast [1] = experiment: Uptake by osteoclast (cellular uptake experiment); assay type: cell-based, mouse
Excerpt: (§1) Osteoblast was isolated from the parietal bone of a newborn mouse by means of stepwise enzyme digestion according to a method described by Takahashi et al. (Takahashi et al., Endocrinology, 123: 2600-2602 (1988)), and cultured using α-MEM (10% fetal calf serum) for 6 to 8 days for use in the following experiments. Furthermore, osteoclast was obtained by co-culturing osteoblastic cells and bone marrow cells for 6 to 8 days using α-MEM (10% fetal calf serum, 10^−8 M vitamin D3, pH 6.2) on a collagen-coated dish according to a method described by Takahashi et al. (Takahashi et al., Endocrinology, 122: 1373-1382 (1988)). The osteoclast was identified by means of tartaric acid-resistant acidic phosphatase dyeing.
Experiment of uptake by cells: The osteoblast or the co-cultured osteoclast was isolated using 35% Percoll and incubated using α-MEM (10% fetal calf serum) at 37° C. in an atmosphere of 5% CO2 and 95% air for 3 hours. The incubated cells were washed with an incubation buffer of pH 7.4 (10 mM HEPES, 5 mM glucose, 150 mM NaCl, 5 mM KCl, 1.8 mM MgSO4, 1 mM CaCl2) three times, and pre-incubated using the same buffer at 37° C. for 30 minutes. Then, the cells in incubation buffer containing ^99mTc(V)-DMS at a concentration of 129.5 kBq/mL were allowed to infiltrate, and washed with the ice-cooled incubation buffer three times, 5, 10, 30 and 60 minutes later. Then, the cells were lysed with 0.2N NaOH, and radioactivity taken up by the cells was measured using a gamma counter. After completion of the radioactivity measurement, the amount of proteins contained in the cell lysate was measured using BCA Protein Assay Kit (produced by Pierce), and the ^99mTc-DMS uptake per unit protein mass (% dose/mg protein) was obtained. As to ^99mTc-HMDP, a similar experiment was carried out for comparison.
In the method described in Example 2, the pH of the incubation buffer was set at 6.2, 6.6, 7.0, 7.4, 7.8 or 8.2, and the incubation time for ^99mTc(V)-DMS uptake was set at 10 minutes, to examine the effect of pH on the uptake of ^99mTc(V)-DMS by osteoclast and osteoblast. […]

osteoblast = experiment: Uptake by osteoblast (cellular uptake experiment); assay type: cell-based, mouse
Excerpt: as §1
Experiment of uptake by cells: The osteoblast or the co-cultured osteoclast was isolated using 35% Percoll and incubated using α-MEM (10% fetal calf serum) at 37° C. in an atmosphere of 5% CO2 and 95% air for 3 hours. […] Then, the cells were lysed with 0.2N NaOH, and radioactivity taken up by the cells was measured using a gamma counter. After completion of the radioactivity measurement, the amount of proteins contained in the cell lysate was measured using BCA Protein Assay Kit (produced by Pierce), and the ^99mTc-DMS uptake per unit protein mass (% dose/mg protein) was obtained. […]

[2] = system: Na^+-dependent phosphate transporter; experiment: Participation of sodium ion-dependent phosphate transporter in uptake by osteoclast (phosphate anion, PFA, Na+, pH and cation effects); assay type: cell-based, mouse; conditions: varied [Pi], PFA 1 or 5 mM, cations, compared with K2H^32PO4, FIGS. 6 through 10
Description: In the method described in Example 2, an incubation buffer of pH 7.4 was used for pre-incubation, and the buffer containing ^99mTc(V)-DMS was an incubation buffer of pH 7.4 with the phosphate anion concentration ([Pi]) adjusted to 0 mM, 0.05 mM, 0.1 mM, 0.5 mM, 1.0 mM or 5.0 mM, while the incubation time was set at 5 minutes, to measure the uptake of ^99mTc(V)-DMS by osteoclast.
Furthermore, a similar experiment was carried out except that the buffer containing ^99mTc(V)-DMS was an incubation buffer of pH 7.4 containing 1 mM or 5 mM of phosphonoformic acid (PFA) which was a sodium ion-dependent phosphate transporter inhibitor.
Moreover, a similar experiment was carried out except that the buffer containing ^99mTc(V)-DMS was an incubation buffer of pH 7.4 with the sodium ion concentration ([Na^+]) adjusted in a range from 0.1 mM to 150 mM, and the incubation time for ^99mTc(V)-DMS uptake was set at 30 seconds, to measure the uptake of ^99mTc(V)-DMS into osteoclast.
In the method described in Example 2, the pH of the incubation buffer was set at 6.2, 6.6, 7.0, 7.4, 7.8 or 8.2, and the incubation time for ^99mTc(V)-DMS uptake was set at 30 seconds, to examine effct of pH on the uptake of ^99mTc(V)-DMS into osteoclast. A similar experiment was carried out for K2H^32PO4, to compare the behaviors of ^99mTc(V)-DMS and K2H^32PO4. […]

osteoclast [3] = experiment: Autoradiography of rat knee joint compared with osteoclast/osteoblast marker staining; assay type: in vivo, Wistar male rat; conditions: inferred from ^186Re(V)-DMS autoradiography in rat knee joint
Description: ^99mTc is unsuitable for autoradiography since it has a half life of 6 hours and is a gamma ray-emitting nuclide. Considering this, a radioisotope of Re that is a homologous element of Tc was used to evaluate the in vivo accumulation of ^99mTc(V)-DMS in osteoclast.
^186Re(V)-DMS prepared according to a method described by Horiuchi et al. (Nucl. Med. Biol. 26: 771-779 (1999)) was administered in an amount of 370 kBq to a Wistar male rat, and the rat was sacrificed 3 hours later. Knee joints were extracted, and 30 μm thick specimens were prepared and autoradiographed. Furthermore, from the same regions, 20 μm thick specimens were prepared and the tartaric acid-resistant acidic phosphatase as an osteoclast marker or the alkaline phosphatase as an osteoblast marker was detected by means of staining. The results of the autoradiography and staining were compared to evaluate the accumulation of ^99mTc(V)-DMS in osteoclast.

## ^99mTc(V)-dimercaptosuccinic acid [^99mTc(V)-DMS]
Osteoclast [1]; pH 6.2 to 8.2, incubation time 10 minutes, FIG. 4
  effect of pH on the cellular uptake by osteoclast: remarkably increases as the pH value decreases
Osteoclast [1]; pH of buffers for both pre-incubation and uptake 6.2, versus 7.4/6.2 and 7.4/7.4, 10 minutes, FIG. 5
  effect of incubation modality (extracellular pH) on the cellular uptake by osteoclast: the uptake of ^99mTc(V)-DMS rises
Osteoclast [1]; time course 5, 10, 30 and 60 minutes, incubation buffer pH 7.4, 37° C., FIG. 2
  cellular uptake by osteoclast (uptake per unit protein mass): taken up by osteoclastic cells in an especially large amount
osteoblast; pH 6.2 to 8.2, incubation time 10 minutes, FIG. 3
  effect of pH on the cellular uptake by osteoblast: does not show any significant difference
osteoblast; time course 5, 10, 30 and 60 minutes, incubation buffer pH 7.4, 37° C., FIG. 1
  cellular uptake by osteoblast (uptake per unit protein mass): taken up by osteoblastic cells in an amount smaller than ^99mTc-HMDP
[2]
  route of uptake by osteoclast: taken up by osteoclast through the Na^+-dependent phosphate transporter
Osteoclast [3]
  accumulation in osteoclast in vivo, inferred from ^186Re(V)-DMS surrogate: accumulation of ^99mTc(V)-DMS in osteoclast is specific
